In publication PMC12779811, “Diverse phloroglucinols with hAChE inhibitory and anti-VRE effects from Rhodomyrtus tomentosa fruits” (Natural Products and Bioprospecting, 2026):
Converted amounts (≈) assume the structure as drawn.

Assays:
[1] = tested on: vancomycin-resistant Enterococci (VRE); experiment: Anti-VRE assay, standard broth microdilution method in 96-well plates; assay type: cell-based; settings: Enterococcus, ampicillin positive control, tests performed three times, read-out: MIC against vancomycin-resistant Enterococci (VRE)
Method: As described in earlier studies, the antibacterial activities against vancomycin-resistant Enterococci (VRE) were achieved by a standard broth microdilution method in 96-well plates. Ampicillin (AMP) was a positive control, and all tests were performed three times.

[2] = biological target: T1, human acetylcholinesterase (hAChE) (Homo sapiens, UniProt P22303); experiment: biochemical; settings: triplicate; galantamine positive control; IC50 exceeding 40 μM considered inactive; read-out: hAChE inhibitory activity IC50 ± SD
Method: hAChE inhibition assays were performed according to a reported protocol, with galantamine as the positive control. All assays were performed in triplicate.

[3] = biological target: T1, human acetylcholinesterase (hAChE); set-up: method as in PMID 36007662; settings: earlier report; cited from earlier work

T1 sequence (P22303 32-614): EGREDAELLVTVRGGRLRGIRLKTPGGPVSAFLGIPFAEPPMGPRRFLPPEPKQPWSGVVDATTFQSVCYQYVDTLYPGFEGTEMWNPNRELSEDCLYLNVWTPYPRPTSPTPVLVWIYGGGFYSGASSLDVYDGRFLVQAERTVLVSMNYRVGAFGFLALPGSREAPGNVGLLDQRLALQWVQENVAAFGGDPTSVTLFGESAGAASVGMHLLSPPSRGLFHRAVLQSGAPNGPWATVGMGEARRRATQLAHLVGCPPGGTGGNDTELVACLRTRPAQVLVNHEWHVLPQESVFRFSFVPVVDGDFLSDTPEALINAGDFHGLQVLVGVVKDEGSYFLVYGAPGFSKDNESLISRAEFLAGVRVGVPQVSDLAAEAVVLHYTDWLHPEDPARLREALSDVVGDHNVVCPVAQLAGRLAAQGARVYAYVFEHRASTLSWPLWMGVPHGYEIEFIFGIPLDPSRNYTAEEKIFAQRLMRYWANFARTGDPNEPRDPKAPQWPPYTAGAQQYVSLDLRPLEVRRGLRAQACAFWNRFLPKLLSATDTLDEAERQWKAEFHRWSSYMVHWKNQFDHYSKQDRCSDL

| SMILES | MIC [1] | IC50 [2] | inhibitory activity against human acetylcholinesterase (hAChE), in words [3] |
| --- | --- | --- | --- |
| CC1(C)S[C@@H]2[C@H](NC(=O)[C@H](N)c3ccccc3)C(=O)N2[C@H]1C(=O)O [ampicillin, reference compound] | 2 mg/L (≈ 5.72 µM) | – | – |
| CC(C)C[C@H]1C2=C(O[C@]3(C)[C@H]1C[C@]1(C(C)C)C[C@@H]13)C(C)(C)C(=O)C(C)(C)C2=O [phloroglucinol 1, rhodotomentodione F] | – | > 40 µM | – |
| CC1(C)C(=O)C2=C(OC3(O)C(=C2)C(=O)C(C)(C)C(=O)C3(C)C)C(C)(C)C1=O (stereo not shown) [phloroglucinol 2, rhodotomentodimer H] | – | > 40 µM | – |
| CCC(C)C1C2=C(Oc3c(C(=O)C(C)C)c(O)cc(O)c31)C(C)(C)C(=O)C(C)(C)C2=O (stereo not shown) [phloroglucinol 3, rhodotomentodimer I] | – | 2.89 ± 0.3 µM | – |
| CCC(C)C(=O)c1c(O)cc(O)c2c1OC1=C(C(=O)C(C)(C)C(=O)C1(C)C)C2C(C)C (stereo not shown) [phloroglucinol 4, rhodotomentodimer J] | – | 2.39 ± 0.25 µM | – |
| CCC(C)C(=O)c1c(O)cc(O)c2c1OC1=C(C(=O)C(C)(C)C(=O)C1(C)C)C2C(C)C (stereo not shown) [phloroglucinol 5, rhodotomentodimer K] | – | 2.46 ± 0.33 µM | – |
| CCC(C)C(=O)c1c(O)cc(O)c2c1OC1=C(C(=O)C(C)(C)C(=O)C1(C)C)C2C(C)CC (stereo not shown) [phloroglucinol 6, rhodotomentodimer L] | – | 2.62 ± 0.21 µM | – |
| CCC(C)C(=O)c1c(O)cc(O)c2c1OC1=C(C(=O)C(C)(C)C(=O)C1(C)C)C2C(C)CC (stereo not shown) [phloroglucinol 7, rhodotomentodimer M] | – | 2.41 ± 0.22 µM | – |
| CCC(C)C(=O)c1c(O)cc2c(c1O)C(C(C)CC)C1=C(O2)C(C)(C)C(=O)C(C)(C)C1=O (stereo not shown) [phloroglucinol 8, rhodotomentodimer N] | – | 3.35 ± 0.41 µM | – |
| CCC(C)C(=O)c1c(O)cc2c(c1O)C(C(C)C)C1=C(O2)C(C)(C)C(=O)C(C)(C)C1=O (stereo not shown) [phloroglucinol 9, myrciarone B] | – | 2.86 ± 0.3 µM | – |
| CCC(C)C(=O)c1c(O)cc2c(c1O)C(CC(C)C)C1=C(O2)C(C)(C)C(=O)C(C)(C)C1=O (stereo not shown) [phloroglucinol 10, rhodotomentodimer D] | – | – | exhibited inhibitory activity |
| CC(C)C(=O)c1c(O)cc2c(c1O)C(C(C)C)C1=C(O2)C(C)(C)C(=O)C(C)(C)C1=O (stereo not shown) [phloroglucinol 11, isomyrtucommulone B] | 1 mg/L (≈ 2.41 µM) | 1.36 ± 0.16 µM | – |
| CC(C)CC(=O)c1c(O)cc2c(c1O)C(CC(C)C)C1=C(O2)C(C)(C)C(=O)C(C)(C)C1=O (stereo not shown) [phloroglucinol 12, rhodomyrtone] | 1 mg/L (≈ 2.26 µM) | 1.52 ± 0.14 µM | – |
| CC(C)C(=O)c1c(O)cc(O)c2c1OC1=C(C(=O)C(C)(C)C(=O)C1(C)C)C2C(C)C (stereo not shown) [phloroglucinol 13, myrtucommulone B] | > 32 mg/L | 1.04 ± 0.03 µM | – |
| CC(C)CC(=O)c1c(O)cc(O)c2c1OC1=C(C(=O)C(C)(C)C(=O)C1(C)C)C2C(C)C (stereo not shown) [phloroglucinol 14, callistenone A] | > 32 mg/L | 1.23 ± 0.11 µM | – |
